Results reported in ChEMBL document CHEMBL1137281, “Synthesis and biological evaluation of copper (II) complexes of sterically hindered o-aminophenol derivatives as antimicrobial agents” (2006).
Converted amounts (≈) assume the structure as drawn.

What was measured:
Type in all cases: functional
Cyberlindnera jadinii = assay: Antimicrobial activity against Candida utilis; conditions: Williopsis jadinii
Bacillus subtilis = assay: Antibacterial activity against Bacillus subtilis
Escherichia coli = assay: Antibacterial activity against Escherichia coli
Candida albicans = assay: Antimicrobial activity against Candida albicans
[1] = Antimicrobial activity against Hansenula sp.; conditions: Pichia
Komagataella pastoris = assay: Antimicrobial activity against Pichia pastoris
[2] = test system: Staphylococcus saprophyticus; assay: Antibacterial activity against Staphylococcus saprophyticus
Rhodotorula mucilaginosa = assay: Antimicrobial activity against Rhodotorula rubra
Candida boidinii = assay: Antimicrobial activity against Candida boidinii
Serratia marcescens = assay: Antimicrobial activity against Serratia marcescens
Papiliotrema laurentii = assay: Antifungal activity against Cryptococcus laurentii
Micrococcus luteus = assay: Antimicrobial activity against Sarcina lutea
Aspergillus niger = assay: Antifungal activity against Aspergillus niger
Saccharomyces cerevisiae = assay: Antimicrobial activity against Saccharomyces cerevisiae
Lipomyces lipofer = assay: Antimicrobial activity against Lipomyces lipofer
Pseudomonas aeruginosa = assay: Antimicrobial activity against Pseudomonas aeruginosa

Row | Structure (SMILES) | MIC (Cyberlindnera jadinii) [µg/mL] | MIC (Bacillus subtilis) [µg/mL] | MIC (Escherichia coli) [µg/mL] | MIC (Candida albicans) [µg/mL] | MIC [1] [µg/mL] | MIC (Komagataella pastoris) [µg/mL] | MIC [2] [µg/mL] | MIC (Rhodotorula mucilaginosa) [µg/mL] | MIC (Candida boidinii) [µg/mL] | MIC (Serratia marcescens) [µg/mL] | MIC (Papiliotrema laurentii) [µg/mL] | MIC (Micrococcus luteus) [µg/mL] | MIC (Aspergillus niger) [µg/mL] | MIC (Saccharomyces cerevisiae) [µg/mL] | MIC (Lipomyces lipofer) [µg/mL] | MIC (Pseudomonas aeruginosa) [µg/mL]
1 | CC(C)(C)c1cc(Nc2ccccc2)c(O)c(C(C)(C)C)c1 | > 50 | > 50 | > 50 | > 50 | > 50 | > 50 | > 50 | > 50 | > 50 | > 50 | > 50 | > 50 | > 50 | > 50 | > 50 | > 50
2 | Nc1ccccc1O [QUESTIOMYCIN B] | > 50 | > 25 | > 50 | > 50 | > 50 | > 50 | > 50 | – | > 50 | > 50 | – | – | > 50 | > 50 | – | > 50
3 | CC(C)(C)c1cc(N)c(O)c(C(C)(C)C)c1 | > 50 | 25 (≈ 113 µM) | > 50 | > 50 | 6.25 (≈ 28.2 µM) | 6.25 (≈ 28.2 µM) | 12.5 (≈ 56.5 µM) | 50 (≈ 226 µM) | > 50 | > 50 | 6.25 (≈ 28.2 µM) | 12.5 (≈ 56.5 µM) | > 50 | 6.25 (≈ 28.2 µM) | 6.25 (≈ 28.2 µM) | > 50
